According to patent US20120214824A1, “PROTEOSTASIS REGULATORS” (priority 2010, published 2012):

Legend:
GCLM [1] = assay: Multigene assay (QuantiGene Plex 2.0), human HeLa cell line; type: cell-based; conditions: 6 hours post-compound treatment, Table 7
Method: (§1) This assay used the QuantiGene Plex 2.0 Reagent System from Affymetrix. This assay combines the use of bDNA (branch DNA) and xMAP magnetic capture beads from Luminex Technologies to quantitatively and simultaneously detect multiple mRNA transcripts per well. The overall procedure was performed according to the QuantiGene Plex 2.0 Reagent System instruction manual from Affymetrix.
(§2) Cells were seeded at a density of 12,000 cells/well in 96-well plates with an overnight incubation at 37° C., 5% CO2. Cells were treated with serially diluted compounds in a 7-point dose dependent manner. Cell lysis with 50% [v/v] Panomics Lysis Mixture (Lysis Mixture+10 μl/ml 25 Proteinase K) was performed 6 hours post-compound treatment. Lysed cells were heated at 50° C. to ensure appropriate lysing and the plates were then frozen at −80° C. Cell lysates, thawed at room temperature on the day of the assay, were pooled with mouse 8-gene multiplex probe sets and with 8 different sets of magnetic capture beads (Luminex Technology, Austin, Tex.) in a 100 μl/well volume. Biomek FX was used at every liquid transfer step. The eight plates containing lysate-probe-bead mixtures were incubated at 54° C.±1° C. on a shaking platform for an overnight incubation in the dark (18-20 hours). The following day the hybridization plates were compressed by transferring the hybridized lysates into a single magnetic capture plate. The plate was kept on a magnet to hold the beads and then washed with Panomics Wash Buffer 2.0 on a BioTek ELx405 select plate washer to remove any unbound sample. This step was followed by serial hybridizations and washings of the bDNA pre-amplifier (1 hour, 50° C.), bDNA amplifier (1 hour, 50° C.), label probe (1 hour, 50° C.), and streptavidin-phycoerythrin (SAPE, 30 minutes, room temperature). (Zhang, A. et al. Small interfering RNA and gene expression analysis using a multiplex branched DNA assay without RNA purification. J Biomol Screen 10, 549-56 (2005)). The plate was then washed with SAPE wash buffer to remove unbound SAPE and each well was analyzed with the Luminex FlexMap3D (Luminex, Austin, Tex.). SAPE fluorescence measured from each bead was proportional to the number of mRNA transcripts captured by the beads (Zheng, Z., Luo, Y. & McMaster, G. K. Sensitive and quantitative measurement of gene expression directly from a small amount of whole blood. Clin Chem 52, 1294-302 (2006)). Fold changes in gene expression were obtained for each gene per well by normalizing the raw data first to the DMSO control and then to a housekeeping gene (TBP-TATA binding protein or Tub1-alpha-tubulin).

HspA5 [2] = assay: as above; type: cell-based; conditions: 6 hours post-compound treatment, Table 7
Method: as §1, §2

Hspa1a [3] = assay: as above; type: cell-based; conditions: 6 hours post-compound treatment, Table 7
Method: as §1, §2

SQSM = assay: as above; type: cell-based; conditions: 6 hours post-compound treatment, Table 7
Method: as §1, §2

HMOX1 = assay: as above; type: cell-based; conditions: 6 hours post-compound treatment, Table 7
DDIT3 [4] = assay: as above; type: cell-based; conditions: 6 hours post-compound treatment, Table 7
firefly luciferase = assay: Luciferase folding assay (Lucif.); type: cell-based, human; conditions: HeLa-luciferase cells
Description: Firefly luciferase is a commonly used bioluminescent reporter. This monomeric enzyme of 61 kDa catalyzes a two-step oxidation reaction to yield light, usually in the green to yellow region, typically 550-570 nm. The first step of this reaction is activation of the luciferyl carboxylate by ATP to yield a reactive mixed anhydride. In the second step, the activated intermediate reacts with oxygen to create a transient dioxetane that breaks down to the oxidized products, oxyluciferin and CO2. Upon mixing with substrates, firefly luciferase produces an initial burst of light that decays over about 15 seconds to a low level of sustained luminescence. This kinetic profile reflects the slow release of the enzymatic product, thus limiting catalytic turnover after the initial reaction.
This mammalian cell based assay that used firefly luciferase as a sensor was used to screen for compounds that may modulate the cellular folding environment.
HeLa luciferase cell lines: Frozen bullets containing the cells were thawed briefly at 37° C. then placed into a T-150 flask containing 30-35 ml DMEM medium+Penicillin/Strep (1% final+10% FBS (final)+Geneticin @ 200-500 ug/ml. Cell cultures were maintained at 37° C. with 5% CO2 and water in the bottom of the incubator to keep cells healthy. Upon expanding cell line, luciferase measurements were taken to make sure that activity levels were between 2000-5000 (RLU) when plated at 15K/well in a 96-well format (Bright-Glo Promega) before compound treatment.
Compound treatment of HeLa-luciferase cells: HeLa-luciferase WT cells were plated in a 96-well format at 15K/well the day prior to performing compound treatment and/or luciferase assay. […] Final volume used per well was 90 uL. Flat bottom, white polystyrene plates were used for plating the cells.
For compound treatment, stocks of compounds were made up at 10 mM concentration in DMSO. Stocks compounds were diluted by 100× fold in the same media used for culturing the cells—this leads to a 0.1 mM (or 100 uM) concentration. After diluting the compound in media, 10 uL of the 100 uM solution was placed into each well of cells (90 uL); making the final concentration of the compound 10 uM. If serial dilutions of compounds were tested, serial dilutions of compounds were first made in DMSO accordingly, and further diluted in the media, prior to adding to cells. This procedure allowed for constant final levels of DMSO concentrations, regardless of initial compound concentration.
Performing luciferase activity assay: Bright-Glo Luciferase Assay Reagent (Promega cat #: E2610, E2620, E2650) was thawed out at RT in a water bath. Alternatively, Bright-Glo Luciferase assay buffer (prior to mixing with substrate) was stored overnight at RT, prior to using.
Following compound treatment, plates were removed from 37° C. and allowed to acclimate to RT for 5-10 min. Bright-Glo reagent was added to each cell-containing well in a 1:1 ratio (e.g., 100 uL of Bright Glo for each 100 uL cells).
Plates were placed on a plate shaker for 5 min, removing any air bubbles on the surface (which may interfere with proper reads), and then read on an EnVision 2104 Multilabel reader, Emission filter Luminescence 700, barcode 212, WL 400-700 nm.
Data for representative compounds in this assay are shown under the heading “Lucif.”

BCL2 = assay: Multigene assay (QuantiGene Plex 2.0), mouse MEF cell line; type: cell-based; conditions: 6 hours post-compound treatment
Method: as §1, §2

DDIT3 [5] = assay: as above; type: cell-based; conditions: 6 hours post-compound treatment
Method: as §1, §2

GCLM [6] = assay: as above; type: cell-based; conditions: 6 hours post-compound treatment
Method: as §1, §2

HMOX = assay: as above; type: cell-based; conditions: 6 hours post-compound treatment
Method: as §1, §2

HSPA1a [7] = assay: as above; type: cell-based; conditions: 6 hours post-compound treatment
Method: as §1, §2

HspA5 [8] = assay: as above; type: cell-based; conditions: 6 hours post-compound treatment
Method: as §1, §2

TUB1 = assay: as above; type: cell-based; conditions: 6 hours post-compound treatment
Method: as §1, §2

Structure (SMILES) | GCLM gene induction (GCLM [1]) | HspA5 gene induction (HspA5 [2]) | HSPA1a gene induction (Hspa1a [3]) | SQSM gene induction (SQSM) | HMOX1 gene induction (HMOX1) | DDIT3 gene induction (DDIT3 [4]) | Lucif (luciferase activity induction) (firefly luciferase; Table 2a) | BCL2 gene induction (BCL2; Table 2b) | DDIT3 gene induction (DDIT3 [5]; Table 2a) | GCLM gene induction (GCLM [6]; Table 2a) | HMOX gene induction (HMOX; Table 2b) | HSPA1a gene induction (HSPA1a [7]; Table 2b) | HspA5 gene induction (HspA5 [8]; Table 2b) | TUB1 gene induction (TUB1; Table 2a) | Lucif (luciferase activity induction) (firefly luciferase; Table 3a) | BCL2 gene induction (BCL2; Table 3b) | DDIT3 gene induction (DDIT3 [5]; Table 3a) | GCLM gene induction (GCLM [6]; Table 3a) | HMOX gene induction (HMOX; Table 3b) | HSPA1a gene induction (HSPA1a [7]; Table 3b) | other results
CC1=C(C#N)C(c2ccccc2OC(C)C)C2=C(CC(c3ccccc3)CC2=O)N1 (centres unmarked) [D] | — (— Indicates less than 2 fold induction) | — (— Indicates less than 2 fold induction) | + (+ indicates a induction of greater than 2 fold) | — (— Indicates less than 2 fold induction) | + (+ indicates a induction of greater than 2 fold) | — (— Indicates less than 2 fold induction) | – | – | – | – | – | – | – | – | – | – | – | – | – | – | –
CC1=C(C#N)C(c2ccccc2OC(C)C)C2=C(CC(c3ccccc3)CC2=O)N1 (centres unmarked) [drawing 27/Me/CN/o-OCHMe2/H] | – | – | – | – | – | – | + (+ indicates a induction of greater than 2 fold) | − (− Indicates less than 2 fold induction) | − (− Indicates less than 2 fold induction) | − (− Indicates less than 2 fold induction) | − (− Indicates less than 2 fold induction) | − (− Indicates less than 2 fold induction) | − (− Indicates less than 2 fold induction) | − (− Indicates less than 2 fold induction) | – | – | – | – | – | – | –
CC1=C(C#N)C(c2ccccc2OC(C)C)C2=C(CC(c3ccc(Cl)cc3)CC2=O)N1 (centres unmarked) [C] | — (— Indicates less than 2 fold induction) | + (+ indicates a induction of greater than 2 fold) | + (+ indicates a induction of greater than 2 fold) | — (— Indicates less than 2 fold induction) | — (— Indicates less than 2 fold induction) | + (+ indicates a induction of greater than 2 fold) | – | – | – | – | – | – | – | – | – | – | – | – | – | – | –
CCCc1n[nH]c2c1C(c1ccccc1C(F)(F)F)C(C#N)=C(N)O2 (centres unmarked) [drawing 28/(CH2)2Me/2-CF3 #1] | – | – | – | – | – | – | – | – | – | – | – | – | – | – | + (+ indicates a induction of greater than 2 fold) | − (− Indicates less than 2 fold induction) | − (− Indicates less than 2 fold induction) | + (+ indicates a induction of greater than 2 fold) | + (+ indicates a induction of greater than 2 fold) | − (− Indicates less than 2 fold induction) | HspA5 gene induction (HspA5 [8]; Table 3b): − (− Indicates less than 2 fold induction); TUB1 gene induction (TUB1; Table 3a): − (− Indicates less than 2 fold induction)
CCCc1n[nH]c2c1C(c1ccccc1C(F)(F)F)C(C#N)=C(N)O2 (centres unmarked) [drawing 28/(CH2)2Me/2-CF3 #2] | – | – | – | – | – | – | – | – | – | – | – | – | – | – | + (+ indicates a induction of greater than 2 fold) | − (− Indicates less than 2 fold induction) | − (− Indicates less than 2 fold induction) | + (+ indicates a induction of greater than 2 fold) | + (+ indicates a induction of greater than 2 fold) | − (− Indicates less than 2 fold induction) | HspA5 gene induction (HspA5 [8]; Table 3b): − (− Indicates less than 2 fold induction); TUB1 gene induction (TUB1; Table 3a): − (− Indicates less than 2 fold induction)
CC1=C(C#N)C(c2ccc(F)cc2)C2=C(CC(c3ccccc3)CC2=O)N1 (centres unmarked) [drawing 27/Me/CN/p-F/H] | – | – | – | – | – | – | + (+ indicates a induction of greater than 2 fold) | − (− Indicates less than 2 fold induction) | + (+ indicates a induction of greater than 2 fold) | − (− Indicates less than 2 fold induction) | + (+ indicates a induction of greater than 2 fold) | − (− Indicates less than 2 fold induction) | − (− Indicates less than 2 fold induction) | − (− Indicates less than 2 fold induction) | – | – | – | – | – | – | –
